Test results published in PubChem BioAssay (NCI).
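Step 1: Grow cells in 96-well plates. Step 2: Expose to compound for 48 hours at 5 concentrations. Step 3: Interpolate endpoints linearly; if unreached, use highest concentration. GI50: concentration for 50% inhibition of growth. TGI marks complete inhibition of growth.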

Tests used:
Assay in all cases: inhibition of tumour cell growth, NCI panel, 48 h
A549 NSCLC = system: A549 NSCLC
IGROV1 ovarian = system: IGROV1 ovarian
BT-549 breast = system: BT-549 breast
ACHN renal = system: ACHN renal
HCT-116 colon = system: HCT-116 colon
M14 melanoma = system: M14 melanoma
TK-10 renal = system: TK-10 renal
NCI-H522 lung = system: NCI-H522 lung
UACC-62 melanoma = system: UACC-62 melanoma
UO-31 renal = system: UO-31 renal
HCC-2998 colon = system: HCC-2998 colon
DU-145 prostate = system: DU-145 prostate
SF-539 CNS = system: SF-539 CNS
UACC-257 melanoma = system: UACC-257 melanoma
SK-MEL-28 melanoma = system: SK-MEL-28 melanoma
NCI-H226 lung = system: NCI-H226 lung
786-0 renal = system: 786-0 renal
MOLT-4 leukemia = system: MOLT-4 leukemia
OVCAR-8 ovarian = system: OVCAR-8 ovarian
HT29 colon = system: HT29 colon
SK-MEL-2 melanoma = system: SK-MEL-2 melanoma
MDA-MB-435 = system: MDA-MB-435
NCI-H460 lung = system: NCI-H460 lung
COLO 205 colon = system: COLO 205 colon
MCF7 breast = system: MCF7 breast
HL-60(TB) leukemia = system: HL-60(TB) leukemia
HCT-15 colon = system: HCT-15 colon
SNB-19 CNS = system: SNB-19 CNS
NCI/ADR-RES ovarian = system: NCI/ADR-RES ovarian
PC-3 prostate = system: PC-3 prostate
A498 renal = system: A498 renal
HS 578T breast = system: HS 578T breast
CAKI-1 renal = system: CAKI-1 renal
MDA-MB-231 breast = system: MDA-MB-231 breast
SNB-75 CNS = system: SNB-75 CNS
LOX IMVI melanoma = system: LOX IMVI melanoma
RPMI-8226 leukemia = system: RPMI-8226 leukemia
SR leukemia = system: SR leukemia
SK-MEL-5 melanoma = system: SK-MEL-5 melanoma
OVCAR-5 ovarian = system: OVCAR-5 ovarian
SF-295 CNS = system: SF-295 CNS
KM12 colon = system: KM12 colon
U251 CNS = system: U251 CNS
CCRF-CEM leukemia = system: CCRF-CEM leukemia
OVCAR-3 ovarian = system: OVCAR-3 ovarian
SF-268 CNS = system: SF-268 CNS
SW-620 colon = system: SW-620 colon
SN12C renal = system: SN12C renal
MALME-3M melanoma = system: MALME-3M melanoma
HOP-92 NSCLC = system: HOP-92 NSCLC
RXF 393 renal = system: RXF 393 renal
NCI-H23 lung = system: NCI-H23 lung
T-47D breast = system: T-47D breast
SK-OV-3 ovarian = system: SK-OV-3 ovarian
HOP-62 NSCLC = system: HOP-62 NSCLC

`Cc1ccc(C)c(NC2=C(Cl)C(=O)c3nc(C)ccc3C2=O)c1` gave a GI50 (A549 NSCLC) of 2100 nM, a TGI (A549 NSCLC) of 4750 nM and a GI50 (IGROV1 ovarian) of 1360 nM. It also gave a TGI (IGROV1 ovarian) of 3300 nM, a GI50 (BT-549 breast) of 1320 nM and a TGI (BT-549 breast) of 2660 nM. The GI50 (ACHN renal) was 1450 nM, the TGI (ACHN renal) was 2910 nM and the GI50 (HCT-116 colon) was 333 nM. It also gave a TGI (HCT-116 colon) of 1510 nM, a GI50 (M14 melanoma) of 1460 nM and a TGI (M14 melanoma) of 2900 nM. For the same compound, the GI50 (TK-10 renal) was 2610 nM, the TGI (TK-10 renal) was 4240 nM and the GI50 (NCI-H522 lung) was 1920 nM. It also gave a TGI (NCI-H522 lung) of 4380 nM, a GI50 (UACC-62 melanoma) of 1560 nM and a TGI (UACC-62 melanoma) of 3260 nM. It also gave a GI50 (UO-31 renal) of 1250 nM, a TGI (UO-31 renal) of 2640 nM and a GI50 (HCC-2998 colon) of 1750 nM. The TGI (HCC-2998 colon) was 3250 nM, the GI50 (DU-145 prostate) was 1600 nM and the TGI (DU-145 prostate) was 3080 nM. It also gave a GI50 (SF-539 CNS) of 1650 nM, a TGI (SF-539 CNS) of 3120 nM and a GI50 (UACC-257 melanoma) of 1420 nM. For the same compound, the TGI (UACC-257 melanoma) was 2820 nM, the GI50 (SK-MEL-28 melanoma) was 1990 nM and the TGI (SK-MEL-28 melanoma) was 3700 nM. It also gave a GI50 (NCI-H226 lung) of 1670 nM, a TGI (NCI-H226 lung) of 4400 nM and a GI50 (786-0 renal) of 1790 nM. The TGI (786-0 renal) was 3740 nM, the GI50 (MOLT-4 leukemia) was 633 nM and the TGI (MOLT-4 leukemia) was 4090 nM. It also gave a GI50 (OVCAR-8 ovarian) of 1790 nM, a TGI (OVCAR-8 ovarian) of 6010 nM and a GI50 (HT29 colon) of 3080 nM. For the same compound, the TGI (HT29 colon) was 8770 nM, the GI50 (SK-MEL-2 melanoma) was 1930 nM and the TGI (SK-MEL-2 melanoma) was 3890 nM. It also gave a GI50 (MDA-MB-435) of 1410 nM, a TGI (MDA-MB-435) of 3270 nM and a GI50 (NCI-H460 lung) of 1880 nM. It also gave a TGI (NCI-H460 lung) of 3950 nM, a GI50 (COLO 205 colon) of 2090 nM and a TGI (COLO 205 colon) of 4490 nM. The GI50 (MCF7 breast) was 917 nM, the TGI (MCF7 breast) was 3010 nM and the GI50 (HL-60(TB) leukemia) was 1160 nM. It also gave a TGI (HL-60(TB) leukemia) of 3360 nM, a GI50 (HCT-15 colon) of 848 nM and a TGI (HCT-15 colon) of 2560 nM. For the same compound, the GI50 (SNB-19 CNS) was 1490 nM, the TGI (SNB-19 CNS) was 3420 nM and the GI50 (NCI/ADR-RES ovarian) was 1330 nM. For the same compound, the TGI (NCI/ADR-RES ovarian) was 5020 nM, the GI50 (PC-3 prostate) was 1140 nM and the TGI (PC-3 prostate) was 2920 nM. For the same compound, the GI50 (A498 renal) was 2030 nM, the TGI (A498 renal) was 8140 nM and the GI50 (HS 578T breast) was 2050 nM. For the same compound, the TGI (HS 578T breast) was 5760 nM, the GI50 (CAKI-1 renal) was 1430 nM and the TGI (CAKI-1 renal) was 3030 nM. The GI50 (MDA-MB-231 breast) was 969 nM, the TGI (MDA-MB-231 breast) was 2820 nM and the GI50 (SNB-75 CNS) was 1220 nM. The TGI (SNB-75 CNS) was 2640 nM, the GI50 (LOX IMVI melanoma) was 288 nM and the TGI (LOX IMVI melanoma) was 1590 nM. The GI50 (RPMI-8226 leukemia) was 708 nM, the TGI (RPMI-8226 leukemia) was 3340 nM and the GI50 (SR leukemia) was 695 nM. The TGI (SR leukemia) was 3230 nM, the GI50 (SK-MEL-5 melanoma) was 1500 nM and the TGI (SK-MEL-5 melanoma) was 2890 nM. The GI50 (OVCAR-5 ovarian) was 2410 nM, the TGI (OVCAR-5 ovarian) was 4510 nM and the GI50 (SF-295 CNS) was 1750 nM. For the same compound, the TGI (SF-295 CNS) was 3310 nM, the GI50 (KM12 colon) was 1540 nM and the TGI (KM12 colon) was 3570 nM. It also gave a GI50 (U251 CNS) of 1290 nM, a TGI (U251 CNS) of 2780 nM and a GI50 (CCRF-CEM leukemia) of 1610 nM. The TGI (CCRF-CEM leukemia) was 5800 nM, the GI50 (OVCAR-3 ovarian) was 292 nM and the TGI (OVCAR-3 ovarian) was 1150 nM. The GI50 (SF-268 CNS) was 1420 nM, the TGI (SF-268 CNS) was 3290 nM and the GI50 (SW-620 colon) was 1790 nM. For the same compound, the TGI (SW-620 colon) was 4270 nM, the GI50 (SN12C renal) was 1050 nM and the TGI (SN12C renal) was 3150 nM. For the same compound, the GI50 (MALME-3M melanoma) was 2120 nM, the TGI (MALME-3M melanoma) was 4170 nM and the GI50 (HOP-92 NSCLC) was 1840 nM. For the same compound, the TGI (HOP-92 NSCLC) was 3780 nM, the GI50 (RXF 393 renal) was 1220 nM and the TGI (RXF 393 renal) was 2500 nM. For the same compound, the GI50 (NCI-H23 lung) was 1260 nM, the TGI (NCI-H23 lung) was 3920 nM and the GI50 (T-47D breast) was 1260 nM. It also gave a TGI (T-47D breast) of 3720 nM, a GI50 (SK-OV-3 ovarian) of 2740 nM and a TGI (SK-OV-3 ovarian) of 14600 nM. For the same compound, the GI50 (HOP-62 NSCLC) was 1450 nM and the TGI (HOP-62 NSCLC) was 2990 nM.
